Source: ChEMBL document CHEMBL5634094, “Micafungin: A promising inhibitor of UBE2M in cancer cell growth suppression” (Eur J Med Chem, 2023)
Activity calls are given as the source filed them. No cut-off for these calls is given here. Starred links: 1 amine or outer side, 2 acyl side, 3 side chain; linkers in the order of their positions; H or OH if unused. Positions of bridges follow the written chain, without caps; N, C: chain ends. Non-standard residues stand in square brackets, D forms with d. Residues, ends and D or L forms follow the SMILES beside them. *: point of attachment. hTyr(3S-OH,4S-OH,3'-OSO3H) = N[C@H](C(=O)O)[C@H](O)[C@@H](O)c1ccc(O)c(OS(=O)(=O)O)c1; Orn(4R-OH,5R-OH) = O=C([C@H](C[C@@H](O)[C@@H](O)N[*:3])N[*:1])[*:2]; Pro(3S-OH,4S-Me) = C[C@H]1CN[C@H](C(=O)O)[C@H]1O; X1 = CCCCCOc1ccc(-c2cc(-c3ccc(C(=O)*)cc3)no2)cc1; Gln(3R-OH) = NC(=O)C[C@@H](O)[C@H](N)C(=O)O; Hyp = O=C(O)[C@@H]1C[C@@H](O)CN1

Key:
[1] = target: T1, NEDD8/NEDD8-conjugating enzyme Ubc12 (Homo sapiens, UniProt P61081+Q15843); assay: Inhibition of GST-tagged recombinant human UBE2M/His-tagged human NEDD8 interaction by HTRF assay relative to control; assay type: protein-complex assay
T1 sequence (Q15843 whole entry, one chain of several): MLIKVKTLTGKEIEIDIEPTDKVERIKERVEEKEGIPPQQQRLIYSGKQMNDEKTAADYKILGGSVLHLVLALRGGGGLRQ

Homo sapiens = organism: Homo sapiens; assay: Inhibition of neddylation of His-tagged recombinant human NAE expressed in Escherichia coli (BL21) at 6.25 to 100 uM by Western blot analysis; settings: dose 6.25-100 µM
[2] = target: T2, NEDD8-conjugating enzyme Ubc12 (Homo sapiens) (UniProt P61081); assay: Inhibition of neddylation of GST-tagged recombinant human UBE2M expressed in Escherichia coli (BL21) by Western blot analysis; settings: dose 6.25-100 µM
T2 sequence (whole entry): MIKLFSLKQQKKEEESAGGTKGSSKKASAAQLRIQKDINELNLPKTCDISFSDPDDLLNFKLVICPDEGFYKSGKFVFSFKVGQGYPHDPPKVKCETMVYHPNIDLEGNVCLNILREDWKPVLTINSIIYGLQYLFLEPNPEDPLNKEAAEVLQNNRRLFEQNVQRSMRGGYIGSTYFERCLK

AGS [3] = assay: Induction of DNA damage in human AGS cells assessed as increase in phosphorylated H2Ax expression at 50 uM incubated for 48 hrs by immunofluorescence analysis; assay type: functional, cell-based
[4] = target: T3, NEDD8-conjugating enzyme Ubc12 (Homo sapiens, UniProt P61081); assay: Inhibition of UBE2M neddylation in human AGS cells incubated for 3 days by immunoblot analysis; assay type: cell-based
T3 sequence (P61081 whole entry): T2 sequence (whole entry)

Cullin-1 (Homo sapiens) [5] = target: Cullin-1 (Homo sapiens) (UniProt Q13616); assay: Inhibition of CULLIN-1 neddylation in human AGS cells assessed as increase in p21 level incubated for 24 hrs by immunoblot analysis; assay type: cell-based; settings: dose 5-40 µM
Cullin-1 (Homo sapiens), sequence (Q13616 whole entry): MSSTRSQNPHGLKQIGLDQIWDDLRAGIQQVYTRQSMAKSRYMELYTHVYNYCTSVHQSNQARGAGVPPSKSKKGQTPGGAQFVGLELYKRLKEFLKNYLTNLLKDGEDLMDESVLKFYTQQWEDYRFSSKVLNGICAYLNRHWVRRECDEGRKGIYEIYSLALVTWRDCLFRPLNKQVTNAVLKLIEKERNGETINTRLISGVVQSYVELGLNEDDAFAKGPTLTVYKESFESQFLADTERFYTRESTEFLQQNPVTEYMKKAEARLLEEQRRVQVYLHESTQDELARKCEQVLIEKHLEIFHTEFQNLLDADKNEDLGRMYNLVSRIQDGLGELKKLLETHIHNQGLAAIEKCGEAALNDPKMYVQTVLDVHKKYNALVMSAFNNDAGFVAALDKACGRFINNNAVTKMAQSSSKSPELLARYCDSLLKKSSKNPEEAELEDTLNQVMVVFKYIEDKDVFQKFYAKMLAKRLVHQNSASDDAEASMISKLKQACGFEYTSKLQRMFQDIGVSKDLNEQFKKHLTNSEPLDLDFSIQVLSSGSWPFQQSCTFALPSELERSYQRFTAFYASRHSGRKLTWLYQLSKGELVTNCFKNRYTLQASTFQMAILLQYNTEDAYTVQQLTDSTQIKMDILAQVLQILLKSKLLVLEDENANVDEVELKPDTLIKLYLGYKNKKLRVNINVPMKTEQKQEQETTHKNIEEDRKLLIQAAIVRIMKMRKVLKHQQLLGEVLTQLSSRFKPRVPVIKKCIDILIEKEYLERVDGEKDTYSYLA

[6] = target: T2, NEDD8-conjugating enzyme Ubc12 (Homo sapiens); assay: Binding affinity to GST-tagged recombinant human UBE2M assessed as protein stability at 65 degreeC incubated for 24 hrs by CETSA; settings: AGS
Cullin-1 (Homo sapiens) [7] = target: Cullin-1 (Homo sapiens) (UniProt Q13616); assay: Inhibition of CULLIN-1 neddylation in human AGS cells incubated for 24 hrs by immunoblot analysis; assay type: cell-based; settings: dose 5-40 µM
AGS [8] = assay: Induction of apoptosis in human AGS cells assessed as increase in cleaved caspase-3 level at 5 to 40 uM incubated for 24 hrs by immunoblot analysis; assay type: functional, cell-based; settings: dose 5-40 µM
[9] = target: T2, NEDD8-conjugating enzyme Ubc12 (Homo sapiens); assay: Binding affinity to GST-tagged recombinant human UBE2M assessed as protein stability at 55 to 60 degreeC incubated for 24 hrs by CETSA; assay type: cell-based; settings: AGS
AGS [10] = assay: Inhibition of cell migration of human AGS cells at 50 uM incubated for 48 hrs by transwell assay; assay type: functional, cell-based
AGS [11] = assay: Induction of cell cycle arrest in human AGS cells assessed as decrease in cell population at S phase at 20 to 40 uM incubated for 24 hrs by PI staining based FACS analysis; assay type: functional; settings: dose 20-40 µM
AGS [12] = assay: Induction of cell cycle arrest at G2/M phase in human AGS cells at 20 to 40 uM incubated for 24 hrs by PI staining based FACS analysis; assay type: functional; settings: dose 20-40 µM
[13] = target: T2, NEDD8-conjugating enzyme Ubc12 (Homo sapiens); assay: Inhibition of […] conjugation to GST-tagged recombinant human UBE2M by pull-down based immunoprecipitation method
AGS [14] = assay: Inhibition of colony formation of human AGS cells incubated for 10 days with replacement of drug containing medium every 3 days by crystal violet staining based analysis; assay type: functional, cell-based; settings: dose 10-40 µM, time 10.0 day
[15] = target: T2, NEDD8-conjugating enzyme Ubc12 (Homo sapiens); assay: Binding affinity to GST-tagged recombinant human UBE2M assessed as protein stability at 60 degreeC preincubated for 10 mins followed by heat exposure by TSA; settings: dose 1.25-20 µM
Cullin-1 (Homo sapiens) [16] = target: Cullin-1 (Homo sapiens) (UniProt Q13616); assay: Inhibition of CULLIN-1 neddylation in human AGS cells assessed as increase in p27 level at 5 to 40 uM incubated for 24 hrs by immunoblot analysis; assay type: cell-based; settings: dose 5-40 µM
AGS [17] = assay: Induction of apoptosis in human AGS cells assessed as decrease in PARP-1 level at 5 to 40 uM incubated for 24 hrs by immunoblot analysis; assay type: functional, cell-based; settings: dose 5-40 µM
AGS [18] = assay: Inhibition of cell migration of human AGS cells at 50 uM incubated for 48 hrs by wound healing assay; assay type: functional, cell-based
AGS [19] = assay: Inhibition of cell viability in human AGS cells incubated for 72 to 120 hrs by MTT assay; assay type: functional, cell-based; settings: dose 5-80 µM, time 72-120 hrs
AGS [20] = assay: Inhibition of global CULLIN neddylation in human AGS cells incubated for 24 hrs by immunoblot analysis; assay type: cell-based; settings: dose 5-40 µM
[21] = target: T2, NEDD8-conjugating enzyme Ubc12 (Homo sapiens); assay: Binding affinity to GST-tagged recombinant human UBE2M assessed as protein stability upto 70 degreeC at 20 uM preincubated for 10 mins followed by heat exposure by TSA
AGS [22] = assay: Induction of apoptosis in human AGS cells assessed as increase in NOXA level at 5 to 40 uM incubated for 24 hrs by immunoblot analysis; assay type: functional, cell-based; settings: dose 5-40 µM
AGS [23] = assay: Inhibition of cell migration of human AGS cells assessed as decrease in VIMENTIN level at 5 to 40 uM incubated for 48 hrs by Western blot analysis; assay type: functional, cell-based; settings: dose 5-40 µM
[24] = target: T1, NEDD8/NEDD8-conjugating enzyme Ubc12; assay: Inhibition of GST-tagged recombinant human UBE2M/His-tagged human NEDD8 interaction by HTRF assay; assay type: protein-complex assay
AGS [25] = assay: Inhibition of cell migration of human AGS cells assessed as increase in N-CADHERIN level at 5 to 40 uM incubated for 48 hrs by Western blot analysis; assay type: functional, cell-based; settings: dose 5-40 µM
AGS [26] = assay: Induction of cell cycle arrest at G2 phase in human AGS cells at 20 to 40 uM incubated for 24 hrs by PI staining based FACS analysis; assay type: functional; settings: dose 20-40 µM
AGS [27] = assay: Inhibition of cell migration of human AGS cells assessed as decrease in SNAIL level at 5 to 40 uM incubated for 48 hrs by Western blot analysis; assay type: functional, cell-based; settings: dose 5-40 µM
AGS [28] = assay: Inhibition of cell migration of human AGS cells assessed as increase in E-CADHERIN level at 5 to 40 uM incubated for 48 hrs by Western blot analysis; assay type: functional, cell-based; settings: dose 5-40 µM
[29] = Inhibition of His-tagged recombinant human NAE expressed in Escherichia coli (BL21) by HTRF assay

Compound: CCCCCCCCCCCC[N+](C)(C)CCOc1ccccc1
- inhibition [1]: 56.5%

Compound: CCCCCCCCOc1ccccc1C(=O)Nc1ccc(C(=O)OCC[N+](C)(CC)CC)cc1
- inhibition [1]: 74.2%
- inhibition (Homo sapiens): Active

Compound: CN(C)[C@@H]1C(O)=C(C(N)=O)C(=O)[C@@]2(O)C(O)=C3C(=O)c4c(O)cccc4[C@@](C)(O)[C@H]3C[C@@H]12
- inhibition [1]: 56.4%

Compound: CN(C)[C@@H]1C(O)=C(C(N)=O)C(=O)[C@@]2(O)C(O)=C3C(=O)c4c(O)cccc4[C@@](C)(O)[C@H]3[C@H](O)[C@@H]12
- inhibition [1]: 64.8%

Compound: CN(C)c1cc(NC(=O)CNC(C)(C)C)c(O)c2c1C[C@H]1C[C@H]3[C@H](N(C)C)C(O)=C(C(N)=O)C(=O)[C@@]3(O)C(O)=C1C2=O
- inhibition [1]: 69.3%

Compound: CN(C)c1ccc(O)c2c1C[C@H]1C[C@H]3[C@H](N(C)C)C(O)=C(C(N)=O)C(=O)[C@@]3(O)C(O)=C1C2=O
- inhibition [1]: 58.9%

Compound: COc1cccc2c1C(=O)c1c(O)c3c(c(O)c1C2=O)C[C@@](O)(C(=O)CO)C[C@@H]3O[C@H]1C[C@H](N)[C@H](O)[C@H](C)O1
- inhibition [1]: 76.5%

Compound: C[C@H]1c2cccc(O)c2C(=O)C2=C(O)[C@]3(O)C(=O)C(C(N)=O)=C(O)[C@@H](N(C)C)[C@@H]3[C@@H](O)[C@@H]21
- inhibition [1]: 78.1%

Compound: Cc1cc(Nc2ncc(Cl)c(Nc3ccccc3S(=O)(=O)C(C)C)n2)c(OC(C)C)cc1C1CCNCC1
- inhibition [1]: 88.2%
- inhibition (Homo sapiens): Active

Compound: Cc1cccc(N(C)C(=S)Oc2ccc3ccccc3c2)c1
- inhibition [1]: 55.2%

Compound: CCCCCOc1ccc(-c2cc(-c3ccc(C(=O)N[C@H]4C[C@@H](O)[C@@H](O)NC(=O)[C@@H]5[C@@H](O)[C@@H](C)CN5C(=O)[C@H]([C@H](O)CC(N)=O)NC(=O)[C@H]([C@H](O)[C@@H](O)c5ccc(O)c(OS(=O)(=O)O)c5)NC(=O)[C@@H]5C[C@@H](O)CN5C(=O)[C@H]([C@@H](C)O)NC4=O)cc3)no2)cc1 [MICAFUNGIN] (X1-[Orn(4R-OH,5R-OH)]T[Hyp][hTyr(3S-OH,4S-OH,3'-OSO3H)][Gln(3R-OH)][Pro(3S-OH,4S-Me)]; lactam 1-C)
- inhibition [2]: Dose-Dependent Effect
- Activity (AGS [3]): Active
- IC50 [4]: 39.9 µM
- inhibition (Cullin-1 (Homo sapiens) [5]): Dose-Dependent Effect
- inhibition [1]: 66.2%
- Activity [6]: inactive
- inhibition (Cullin-1 (Homo sapiens) [7]): Active
- Activity (AGS [8]): Active
- Activity [9]: Active
- inhibition (AGS [10]): Active
- Activity (AGS [11]): Active
- Activity (AGS [12]): Active
- inhibition [13]: Active
- inhibition (AGS [14]): Active
- Activity [15]: Dose-Dependent Effect
- inhibition (Cullin-1 (Homo sapiens) [16]): Active
- inhibition (Homo sapiens): inactive
- Activity (AGS [17]): Active
- inhibition (AGS [18]): Active
- inhibition (AGS [19]): Active
- inhibition (AGS [20]): Active
- Activity [21]: Active
- Activity (AGS [22]): Active
- inhibition (AGS [23]): Active
- IC50 [24]: 17 µM
- inhibition (AGS [25]): Active
- Activity (AGS [26]): Active
- inhibition (AGS [27]): Active
- inhibition (AGS [28]): Active

Compound: NS(=O)(=O)OC[C@@H]1C[C@@H](n2ccc3c(N[C@H]4CCc5ccccc54)ncnc32)C[C@@H]1O [PEVONEDISTAT]
- IC50 [29]: 0.0058 µM
